Data: patent US9056874B2, “Complement pathway modulators and uses thereof” (NOVARTIS AG, priority 2012, dated 2015)

The compounds below were run against factor B (Homo sapiens, UniProt P00751) (assay: factor B inhibition assay of Biological Example 1). Conditions: IC50 (nM), assay of Biological Example 1 (Table 1).
factor B, sequence (P00751 260-764 limits assumed): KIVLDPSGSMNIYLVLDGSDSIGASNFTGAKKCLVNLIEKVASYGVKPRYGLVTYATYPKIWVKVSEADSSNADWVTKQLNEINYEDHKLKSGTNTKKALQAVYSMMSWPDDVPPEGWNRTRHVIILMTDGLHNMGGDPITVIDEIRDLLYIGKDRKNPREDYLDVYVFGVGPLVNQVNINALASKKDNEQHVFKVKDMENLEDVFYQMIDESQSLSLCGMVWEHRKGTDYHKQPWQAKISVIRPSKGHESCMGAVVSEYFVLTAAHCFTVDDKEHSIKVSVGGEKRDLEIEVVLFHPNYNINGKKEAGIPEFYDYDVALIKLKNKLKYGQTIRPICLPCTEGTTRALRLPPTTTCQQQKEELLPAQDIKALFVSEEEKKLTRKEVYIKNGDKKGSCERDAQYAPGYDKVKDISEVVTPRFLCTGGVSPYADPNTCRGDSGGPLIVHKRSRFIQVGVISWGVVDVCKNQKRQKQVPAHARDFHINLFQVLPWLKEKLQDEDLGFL
factor B, sequence (Q91132 23-649 partner limits assumed): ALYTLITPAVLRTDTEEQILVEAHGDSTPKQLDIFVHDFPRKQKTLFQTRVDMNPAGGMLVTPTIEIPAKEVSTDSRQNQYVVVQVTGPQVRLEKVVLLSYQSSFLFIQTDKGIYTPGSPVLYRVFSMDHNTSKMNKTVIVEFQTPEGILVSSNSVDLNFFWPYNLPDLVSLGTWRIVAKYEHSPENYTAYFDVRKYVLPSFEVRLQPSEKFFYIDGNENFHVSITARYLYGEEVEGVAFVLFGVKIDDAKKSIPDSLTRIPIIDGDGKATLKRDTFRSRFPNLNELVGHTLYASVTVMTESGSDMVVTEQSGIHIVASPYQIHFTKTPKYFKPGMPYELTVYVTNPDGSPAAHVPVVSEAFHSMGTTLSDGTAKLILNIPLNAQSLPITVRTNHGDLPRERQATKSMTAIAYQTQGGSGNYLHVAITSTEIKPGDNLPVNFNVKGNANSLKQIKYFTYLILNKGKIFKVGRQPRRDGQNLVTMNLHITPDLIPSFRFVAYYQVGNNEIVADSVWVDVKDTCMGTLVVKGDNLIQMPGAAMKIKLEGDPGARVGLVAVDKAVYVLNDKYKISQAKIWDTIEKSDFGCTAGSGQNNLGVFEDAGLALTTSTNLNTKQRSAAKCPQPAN
factor B, sequence (Q91132 733-984 partner limits assumed): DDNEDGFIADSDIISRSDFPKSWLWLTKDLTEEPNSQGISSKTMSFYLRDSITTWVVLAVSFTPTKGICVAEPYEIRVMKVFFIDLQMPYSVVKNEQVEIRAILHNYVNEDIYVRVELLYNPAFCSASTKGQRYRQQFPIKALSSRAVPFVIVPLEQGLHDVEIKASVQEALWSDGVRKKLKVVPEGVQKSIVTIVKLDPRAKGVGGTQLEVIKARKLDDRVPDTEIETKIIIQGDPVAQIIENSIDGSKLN
factor B, sequence (Q91132 1264-1642 partner limits assumed): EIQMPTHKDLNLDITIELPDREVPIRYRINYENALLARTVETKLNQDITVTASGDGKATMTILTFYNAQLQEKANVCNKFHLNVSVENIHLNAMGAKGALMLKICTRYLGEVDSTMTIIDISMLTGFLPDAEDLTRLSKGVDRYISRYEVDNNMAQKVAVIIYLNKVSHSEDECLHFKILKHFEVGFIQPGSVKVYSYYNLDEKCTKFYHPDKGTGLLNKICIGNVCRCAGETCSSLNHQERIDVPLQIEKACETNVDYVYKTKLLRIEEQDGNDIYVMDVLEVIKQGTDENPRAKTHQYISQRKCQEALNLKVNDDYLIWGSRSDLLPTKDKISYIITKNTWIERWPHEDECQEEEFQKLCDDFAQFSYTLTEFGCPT
Format: biochemical
Design: CVF-Bb complex prepared from purified cobra venom factor (1 μM), recombinant human complement factor B; made in house; host or cells: drosophila cells (factor B); E. coli (factor D used to form the complex)
Compound `CCc1cc(C)c2[nH]ccc2c1C(C)(N)c1nc2cc(C#N)ccc2[nH]1` (single isomer, unassigned; (-)) [102-C b) (−), (−)-2-(1-amino-1-(5-ethyl-7-methyl-1H-indol-4-yl)ethyl)-1H-benzo[d]imidazole-5-carbonitrile] has an IC50 of 10 nM. `Cc1cc(C)c2[nH]ccc2c1Cc1nc2cc(C#N)c(F)cc2[nH]1` [Example 63-G] showed an IC50 of 5550 nM. For `Cc1cc(CC(C)C)c(C(C)(O)c2nc3cc(C#N)ccc3[nH]2)c2cc[nH]c12` (single isomer, unassigned; (-)) [79-D b) (−), (−)-2-(1-hydroxy-1-(5-isobutyl-7-methyl-1H-indol-4-yl)ethyl)-1H-benzo[d]imidazole-5-carbonitrile], the IC50 was 310 nM. In the case of `Cc1cc(OC(F)F)c(C(C)(O)c2nc3cc(C#N)ccc3[nH]2)c2cc[nH]c12` (racemic) [6-B b) (+), (+)-2-(1-(5-(difluoromethoxy)-7-methyl-1H-indol-4-yl)-1-hydroxyethyl)-1H-benzo[d]imidazole-5-carbonitrile], the IC50 is reported as 140 nM. `CNC(c1nc2cc(C#N)ccc2[nH]1)(c1c(OC)cc(C)c2[nH]ccc12)C(F)(F)F` (single isomer, unassigned; (+)) [38-B b) (+), (+)-2-(2,2,2-trifluoro-1-(5-methoxy-7-methyl-1H-indol-4-yl)-1-(methylamino)ethyl)-1H-benzo[d]imidazole-5-carbonitrile] was tested, and the IC50 was 140 nM. With `CCc1cc(C)c2[nH]ccc2c1C(N)(c1nc2cc(C#N)ccc2[nH]1)C(F)(F)F` (single isomer, unassigned; (-)) [107-C b) (−), (−)-2-(1-amino-1-(5-ethyl-7-methyl-1H-indol-4-yl)-2,2,2-trifluoroethyl)-1H-benzo[d]imidazole-5-carbonitrile] the IC50 was 30 nM. With `CCc1cc(C)c2[nH]ccc2c1C(O)(c1nc2cc(C#N)ccc2[nH]1)C(F)(F)F` (single isomer, unassigned; (+)) [80-C b) (+), (+)-2-(1-(5-ethyl-7-methyl-1H-indol-4-yl)-2,2,2-trifluoro-1-hydroxyethyl)-1H-benzo[d]imidazole-5-carbonitrile] the IC50 was 380 nM. Work on `COc1cc(C)c2[nH]ccc2c1C(O)c1nc2ccc(C#N)cc2s1` (racemic) [Example 132-B, (±)-2-(hydroxy(5-methoxy-7-methyl-1H-indol-4-yl)methyl)benzo[d]thiazole-6-carbonitrile] yielded an IC50 of 70 nM. Compound `COC(=O)COC(c1nc2cc(C#N)ccc2[nH]1)(c1c(OC)cc(C)c2[nH]ccc12)C(F)(F)F` (racemic) [35-B a), (±)-Methyl 2-(1-(5-cyano-1H-benzo[d]imidazol-2-yl)-2,2,2-trifluoro-1-(5-methoxy-7-methyl-1H-indol-4-yl)ethoxy)acetate] has an IC50 of 70 nM. `CCOc1cc(C)c2[nH]ccc2c1C(O)c1nc2cc(C#N)ccc2[nH]1` (single isomer, unassigned; (-)) [24-C b) (−), (−)-2-((5-ethoxy-7-methyl-1H-indol-4-yl)(hydroxy)methyl)-1H-benzo[d]imidazole-5-carbonitrile] gave an IC50 of 600 nM. `CCc1cc(C)c2[nH]cc(C#N)c2c1Cc1nc2cc(C#N)ccc2[nH]1` [Example 90, 2-((3-Cyano-5-ethyl-7-methyl-1H-indol-4-yl)methyl)-1H-benzo[d]imidazole-5-carbonitrile] showed an IC50 of 110 nM. Compound `CCc1cc(C)c(Cc2nc3cc(C#N)ccc3[nH]2)c2cc[nH]c12` [Example 111-E, 2-((7-Ethyl-5-methyl-1H-indol-4-yl)methyl)-1H-benzo[d]imidazole-5-carbonitrile] has an IC50 of 22900 nM. Compound `CNC(c1nc2cc(C#N)ccc2[nH]1)(c1c(OC)cc(C)c2[nH]ccc12)C(F)(F)F` (single isomer, unassigned; (-)) [38-B b) (−), (−)-2-(2,2,2-trifluoro-1-(5-methoxy-7-methyl-1H-indol-4-yl)-1-(methylamino)ethyl)-1H-benzo[d]imidazole-5-carbonitrile] has an IC50 of 8 nM. Work on `Cc1cc(C(C)C)c(C(C)(O)c2nc3cc(C#N)ccc3[nH]2)c2cc[nH]c12` (single isomer, unassigned; (+)) [79-B b) (+), (+)-2-(1-hydroxy-1-(5-isopropyl-7-methyl-1H-indol-4-yl)ethyl)-1H-benzo[d]imidazole-5-carbonitrile] yielded an IC50 of 1070 nM. `COc1cc(C)c2[nH]ccc2c1C(O)c1nc2cc(C#N)ccc2o1` (single isomer, unassigned; (-)) [125-B b) (−), (−)-2-(hydroxy(5-methoxy-7-methyl-1H-indol-4-yl)methyl)benzo[d]oxazole-5-carbonitrile] showed an IC50 of 3 nM. Work on `C=Cc1cc(C)c2[nH]ccc2c1Cc1nc2cc(C#N)ccc2[nH]1` [Example 63-C] yielded an IC50 of 90 nM. For `Cc1cc(C)c2[nH]cc(-c3ccccc3)c2c1C(O)c1nc2cc(C#N)ccc2[nH]1` (single isomer, unassigned) [118-C b) (tr = 4.6 min), (+)- or (−)-2-((5,7-dimethyl-3-phenyl-1H-indol-4-yl)(hydroxy)methyl)-1H-benzo[d]imidazole-5-carbonitrile], the IC50 was 30 nM. Compound `CCc1cc(C)c2[nH]ccc2c1C(N)c1nc2cc(C#N)ccc2[nH]1` (single isomer, unassigned; (+)) [96-C b) (+), (+)-2-(amino(5-ethyl-7-methyl-1H-indol-4-yl)methyl)-1H-benzo[d]imidazole-5-carbonitrile] has an IC50 of 2210 nM. Compound `COc1cc(C)c2[nH]ccc2c1C(OCC(=O)O)(c1nc2cc(C#N)ccc2[nH]1)C(F)(F)F` (single isomer, unassigned; (-)) [35-C (−), (−)-2-(1-(5-cyano-1H-benzo[d]imidazol-2-yl)-2,2,2-trifluoro-1-(5-methoxy-7-methyl-1H-indol-4-yl)ethoxy)acetic acid] has an IC50 of 40 nM. `COc1cc(C)c2[nH]ccc2c1C(C)(OC)c1nc2cc(C#N)ccc2[nH]1` (single isomer, unassigned; (+)) [27-B b) (+), (+)-2-(1-methoxy-1-(5-methoxy-7-methyl-1H-indol-4-yl)ethyl)-1H-benzo[d]imidazole-5-carbonitrile] gave an IC50 of 60 nM. With `Cc1cc(C)c2[nH]ccc2c1C(C)(O)c1nc2cc(C#N)ccc2[nH]1` (single isomer, unassigned; (+)) [76-B b) (+), (+)-2-(1-(5,7-Dimethyl-1H-indol-4-yl)-1-hydroxyethyl)-1H-benzo[d]imidazole-5-carbonitrile] the IC50 was 290 nM. `Cc1cc(Cl)c(C(C)(O)c2nc3cc(C#N)ccc3[nH]2)c2cc[nH]c12` (single isomer, unassigned; (+)) [79-E b) (+), (+)-2-(1-(5-chloro-7-methyl-1H-indol-4-yl)-1-hydroxyethyl)-1H-benzo[d]imidazole-5-carbonitrile] was tested, and the IC50 was 1120 nM. In the case of `Cc1cc(CC(C)C)c(C(O)c2nc3cc(C#N)ccc3[nH]2)c2cc[nH]c12` (single isomer, unassigned; (+)) [67-C b) (+), (+)-2-(hydroxy(5-(isobutyl)-7-methyl-1H-indol-4-yl)methyl)-1H-benzo[d]imidazole-5-carbonitrile], the IC50 is reported as 8770 nM. For `CNC(=O)c1cc(C)c2[nH]ccc2c1C(O)(c1nc2cc(C#N)ccc2[nH]1)C(F)(F)F` (racemic) [Example 82, (±)-4-(1-(5-cyano-1H-benzo[d]imidazol-2-yl)-2,2,2-trifluoro-1-hydroxyethyl)-N,7-dimethyl-1H-indole-5-carboxamide], the IC50 was 71900 nM. Compound `Cc1cc(CO)c(C(O)c2nc3cc(C#N)ccc3[nH]2)c2cc[nH]c12` (single isomer, unassigned; (+)) [65-D b) (+), (+)-2-(hydroxy(5-(hydroxymethyl)-7-methyl-1H-indol-4-yl)methyl)-1H-benzo[d]imidazole-5-carbonitrile] has an IC50 of 6200 nM. `Cc1cc(OCC(N)=O)c(C(C)(O)c2nc3cc(C#N)ccc3[nH]2)c2cc[nH]c12` (racemic) [Example 31-C, (±)-2-((4-(1-(5-Cyano-1H-benzo[d]imidazol-2-yl)-1-hydroxyethyl)-7-methyl-1H-indol-5-yl)oxy)acetamide] gave an IC50 of 430 nM. `CNC(c1nc2cc(C#N)ccc2[nH]1)(c1c(Br)cc(C)c2[nH]ccc12)C(F)(F)F` (single isomer, unassigned; (+)) [106 b) (+), (+)-2-(1-(5-bromo-7-methyl-1H-indol-4-yl)-2,2,2-trifluoro-1-(methylamino)ethyl)-1H-benzo[d]imidazole-5-carbonitrile] was tested, and the IC50 was 150 nM. `Cc1cc(Cl)c2[nH]ccc2c1Cc1nc2cc(C#N)ccc2[nH]1` [Example 110-K, 2-((7-Chloro-5-methyl-1H-indol-4-yl)methyl)-1H-benzo[d]imidazole-5-carbonitrile] showed an IC50 of 3330 nM. `[2H]C([2H])([2H])C(OC)(c1nc2cc(C#N)ccc2[nH]1)c1c(OC)cc(C)c2[nH]ccc12` (single isomer, unassigned; (+)) [27-E b) (+), (+)-2-((^2H3)methyl(methoxy)(5-methoxy-7-methyl-1H-indol-4-yl)methyl)-1H-benzo[d]imidazole-5-carbonitrile] showed an IC50 of 90 nM. `Cc1cc(Cl)c(C(C)(O)c2nc3cc(C#N)ccc3[nH]2)c2cc[nH]c12` (single isomer, unassigned; (-)) [79-E b) (−), (−)-2-(1-(5-chloro-7-methyl-1H-indol-4-yl)-1-hydroxyethyl)-1H-benzo[d]imidazole-5-carbonitrile] showed an IC50 of 350 nM. With `Cc1cc(C)c2[nH]ccc2c1C(NS(C)(=O)=O)c1nc2cc(C#N)ccc2[nH]1` (racemic) [Example 99-B, (±)-N-((5-cyano-1H-benzo[d]imidazol-2-yl)(5,7-dimethyl-1H-indol-4-yl)methyl)methanesulfonamide] the IC50 was 750 nM. Compound `CCc1cc(C)c2[nH]ccc2c1C(C)(N)c1nc2cc(C#N)ccc2[nH]1` (single isomer, unassigned; (+)) [102-C b) (+), (+)-2-(1-amino-1-(5-ethyl-7-methyl-1H-indol-4-yl)ethyl)-1H-benzo[d]imidazole-5-carbonitrile] has an IC50 of 50 nM.

Same assay, conditions: assay of Biological Example 1 (Table 1), read-out: IC50
“(−) or (+)-2-(1-methoxy-1-(7-methyl-5-(methylsulfonyl)-1H-indol-4-yl)ethyl)-1H-benzo[d]imidazole-5-carbonitrile [12-B b) (tr = 6.1 min)]” gave an IC50 of 600 nM.
